Results: ChEMBL document CHEMBL5528039, “Discovery of a Macrocyclic Influenza Cap-Dependent Endonuclease Inhibitor” (J Med Chem, 2024)

Experiments:
Influenza A virus [1] = test: Selectivity ratio of EC50 for antiviral activity against Influenza A virus A/PR/8/34 PA-I38T infected in MDCK cells to EC50 for antiviral activity against Influenza A virus A/PR/8/34 (H1N1) infected in MDCK cells; type: functional
Influenza A virus [2] = test: Antiviral activity against Influenza A virus A/PR/8/34 PA-I38T infected in MDCK cells assessed as reduction in virus-induced cytopathic effect incubated for 5 days by CCK8 based microplate spectrophotometric analysis; type: functional, organism-based; conditions: for EC50: mdck; for EC90: time 5 day
Influenza A virus [3] = test: Antiviral activity against baloxavir-resistant Influenza A virus A/PR/8/34 infected in MDCK cells assessed as reduction in virus-induced cytopathic effect incubated for 5 days by CCK8 based microplate spectrophotometric analysis; type: functional, organism-based; conditions: for EC50: mdck; for EC90: time 5 day
Influenza A virus [4] = test: Selectivity ratio of EC50 for antiviral activity against baloxavir-resistant Influenza A virus A/PR/8/34 infected in MDCK cells to EC50 for antiviral activity against Influenza A virus A/PR/8/34 (H1N1) infected in MDCK cells; type: functional

SMILES: CN1C(=O)c2c(O)c(=O)ccn2N2[C@H](c3ccc(F)c(F)c3)c3cc(F)c(F)cc3OCC[C@@H]12
- Ratio EC50 (Influenza A virus [1]): 8.4
- EC50 (Influenza A virus [2]): 211 nM
- EC90 (Influenza A virus [2]): 393 nM

SMILES: CC(C)N1C(=O)c2c(O)c(=O)ccn2N2[C@H](c3ccccc3)c3ccccc3OCC[C@@H]12 (racemic)
- Ratio EC50 (Influenza A virus [1]): 8.2
- EC50 (Influenza A virus [2]): 435 nM
- EC90 (Influenza A virus [2]): 675 nM

SMILES: CN1C(=O)c2c(O)c(=O)ccn2N2[C@H](c3ccccc3Br)c3cc(F)c(F)cc3OCC[C@@H]12 (racemic)
- Ratio EC50 (Influenza A virus [1]): 15
- EC50 (Influenza A virus [2]): 166 nM
- EC90 (Influenza A virus [2]): 344 nM

SMILES: CN1C(=O)c2c(O)c(=O)ccn2N2[C@H](c3ccc(F)cc3)c3cc(F)c(F)cc3OCC[C@@H]12
- Ratio EC50 (Influenza A virus [1]): 14
- EC50 (Influenza A virus [2]): 193 nM
- EC90 (Influenza A virus [2]): 370 nM

SMILES: CN1C(=O)c2c(O)c(=O)ccn2N2[C@H](c3ccccc3)c3ccccc3OCC[C@@H]12
- Ratio EC50 (Influenza A virus [1]): 15
- EC50 (Influenza A virus [2]): 214 nM
- EC90 (Influenza A virus [2]): 336 nM

SMILES: CN1C(=O)c2c(O)c(=O)ccn2N2[C@H](c3ccccc3)c3ccc(F)c(F)c3OCC[C@@H]12 (racemic)
- Ratio EC50 (Influenza A virus [1]): 10
- EC50 (Influenza A virus [2]): 512 nM
- EC90 (Influenza A virus [2]): 795 nM

SMILES: CN1C(=O)c2c(O)c(=O)ccn2N2[C@H](c3ccccc3)c3cc(F)c(F)cc3OCC[C@@H]12
- Ratio EC50 (Influenza A virus [1]): 9.2
- EC50 (Influenza A virus [2]): 66 nM
- EC90 (Influenza A virus [2]): 113 nM
- EC50 (Influenza A virus [3]): 66 nM
- EC90 (Influenza A virus [3]): 113 nM
- Ratio EC50 (Influenza A virus [4]): 9.2

SMILES: CN1C(=O)c2c(O)c(=O)ccn2N2[C@H](c3ccccc3F)c3cc(F)c(F)cc3OCC[C@@H]12
- Ratio EC50 (Influenza A virus [1]): 7.2
- EC50 (Influenza A virus [2]): 79 nM
- EC90 (Influenza A virus [2]): 123 nM

SMILES: O=C1c2c(O)c(=O)ccn2N([C@@H]2c3ccccc3SCc3c2ccc(F)c3F)[C@@H]2COCCN12 [BALOXAVIR]
- Ratio EC50 (Influenza A virus [1]): 68
- EC50 (Influenza A virus [2]): 142 nM
- EC90 (Influenza A virus [2]): 232 nM
- EC50 (Influenza A virus [3]): 142 nM
- EC90 (Influenza A virus [3]): 232 nM
- Ratio EC50 (Influenza A virus [4]): 68
